Measured values from US4870002A, “Method of prevention of oxidative injury to cells” (priority 1985, dated 1989).
Like-named read-outs stand apart in the source and are kept apart here.

Columns and labels:
porcine RBCs = test: Nonspecific binding of Lu-BSA to porcine RBCs (base-activated chemiluminescence); type: cell-based, pig
Protocol: Blood was collected from Landrace-Duroc swine from a closed herd. Pigs from this herd had previously expressed episodes of porcine stress syndrome (malignant hyperthermia) following halothane anesthesia. The blood was collected into acidic citrated dextrose solution in standard blood bags. The blood was diluted 1:10 in phosphate (0.1M) buffered saline (PBS), pH 7.4, in 10 ml aliquots, centrifuged in a clinical centrifuge, and the erythrocytes were resuspended in fresh PBS. The cells were stored at 4° C. until used in the various assays. The post-collection chronological age of the RBCs used for a particular assay is noted in the results for each assay. The cells were counted in an automated cell counter (Coulter ZBI, Coulter Electronics, Inc., Hialeah, Fla. 33010). Nonspecific binding of Lu-BSA to porcine RBCs was measured following treatment with hydrogen peroxide, pyruvate, and/or 3-amino-L-tyrosine at 4°, 37°, or 45° C. The exposure times for those agents were 15 min, 30 min, or 72 hours. The reagents were removed by centrifugation. Three binding protocols were followed: (1) 0.25 ml of 1:20 RBCs (19 days post collection) were incubated with 0.25 ml of 1 mg/ml Lu-BSA in PBS, pH 6.9, for 30 min at 37° C. and washed (Table 1); (2) 0.05 ml of packed RBCs (less than 24 hours post collection) were resuspended in 0.2 ml of the Lu-BSA solution and incubated overnight at 4° C. […] The cells in all three protocols were washed once in PBS, pH 7.4, and resuspended in PBS to final dilutions of 1:20 for (1) and 1:30 for (2) and (3). Following this preparation, 100 μl of each cell suspension were added to 500 μl of PBS, pH 7.4, in a scintillation vial. The vial was placed in the photometer and the solution was activated by the addition of 100 μl 0.1N NaOH. The settings for the photometer were as previously described for the Con A-Lu-BSA.

pig RBCs = test: Thermal fragility / hemolysis of RBCs (410 nm absorbance of supernatant); type: cell-based; details: for thermal hemolysis, 410 nm optical absorbance, Hot air / thermal hemolysis, 410 nm optical absorbance, Microwave exposed / 410 nm optical absorbance of 1:2 diluted supernatant, Hot air / 410 nm optical absorbance of 1:2 diluted supernatant, Microwave exposed: 43° C. (10 min); for thermal hemolysis, 410 nm optical absorbance, Hot air / thermal hemolysis, 410 nm optical absorbance, Microwave exposed: Con A-Lu-BSA labeled RBCs 11-14 days post collection; for effect on thermal hemolysis, in words: 48° C. for 30 min; for 410 nm optical absorbance of 1:2 diluted supernatant, 4° C. / 410 nm optical absorbance of 1:2 diluted supernatant, Hot air / 410 nm optical absorbance of 1:2 diluted supernatant, Microwave exposed: RBCs 6 days post collection
Protocol: Blood was collected from Landrace-Duroc swine from a closed herd. Pigs from this herd had previously expressed episodes of porcine stress syndrome (malignant hyperthermia) following halothane anesthesia. The blood was collected into acidic citrated dextrose solution in standard blood bags. The blood was diluted 1:10 in phosphate (0.1M) buffered saline (PBS), pH 7.4, in 10 ml aliquots, centrifuged in a clinical centrifuge, and the erythrocytes were resuspended in fresh PBS. The cells were stored at 4° C. until used in the various assays. The post-collection chronological age of the RBCs used for a particular assay is noted in the results for each assay. The cells were counted in an automated cell counter (Coulter ZBI, Coulter Electronics, Inc., Hialeah, Fla. 33010).
Red blood cells were heated in 1 or 1.5 ml aliquots of PBS pH 7.4 with or without additional reagents in cellulose nitrate or polypropylene centrifuge tubes. Two concentrations of cells were used as indicated in the results. Heating was accomplished by three methods: microwave radiation, hot air, or water bath heating. The microwave device was a circularly polarized waveguide powered by a 1-kw S-band (microwave) amplifier (Model 10704,MCL, Inc., La Grange, Ill.). The heating of the sample at a specific absorption rate (SAR) of 91±4 W/kg (continuous wave (CW), 2450MHz) was offset by an air-cooling system that maintained a constant temperature. This system has been previously described in greater detail in Kiel, J. L. and D. N. Erwin, "Microwave and thermal interactions with oxidative hemolysis", 16 Physiol. Chem. Phys. Med. NMR, 317-323 (1984), which reference is hereby incorporated in its entirety by this specific reference thereto. […] The temperature was held within ±0.2° C. by this system. In the absence of microwave radiation, the temperature was held constant by hot air alone. The microwave/hot air system was brought to 37° C. for 15 min. prior to raising the temperature to 43° C. by microwaves or hot hot air. The water bath heating held the temperature within ±0.5° C. Heating times were 10, 15, or 30 min. The temperatures examined were 37°, 43°, 45°, or 48°.
Hemoglobin released into the supernatants of the heated cells were determined by the method described in the above-incorporated reference of Kiel and Erwin (1984). In brief, the supernatants were collected following centrifugation in a clinical centrifuge, diluted 1:2 in PBS, pH 7.4, and the optical absorbances at 410 nm were determined in a dual beam spectrophotometer. Pyruvate, lactate, inosine, hydrogen peroxide, mimosine, and/or 3-amino-L-tyrosine were added to the samples as indicated in Tables 1-3 and 9-12. All reagents were diluted in PBS and the final volumes of the samples were constant.

[1] = system: Con A-Lu-BSA labeled pig RBCs; test: Chemiluminescence of Con A-Lu-BSA labeled pig RBCs with exogenous hydrogen peroxide; type: cell-based
Protocol: The luminol-bovine serum albumin (Lu-BSA) complex was made by mixing 2 mg luminol (5-amino-2, 3-dihydrophthalazine-1,4-dione), 0.2 ml of 2 mg BSA/ml PBS (pH 6.9), and 1.6 ml of PBS, pH 6.9. The preparation was then passed through a 0.22 μm nitrocellulose filter to remove insoluble luminol. Next, 0.2 ml of 2 mg Con A/ml of PBS, pH 6.9, was added to the filtrate. After gentle mixing, 10 μl of 25% glutaraldehyde were added. The solution was incubated in the refrigerator for 1 hour. To stop the conjugation, 100 mg of glycine was added to the solution. The solution was then pressed through a 48 ml column of dextran gel filtration beads equilibrated with PBS, pH 6.9. The gel exclusion size was greater than 5000 for globular molecules. The fractions were collected and tested for luminescent labeling activity.
One ml of supernatant of each 10 ml aliquot of 1:20 diluted RBCs was replaced with 1 ml of Con A-Lu-BSA solution as previously described. The preparation was incubated for 15 min. at 37° C. in a water-jacketedcell culture incubator. The cells were then pelleted in a clinical centrifuge, resuspended in PBS, and washed in the same manner two additional times. The washed cells were maintained at 4° C. until used the same day of preparation.
Following exposure to chemical or physical stressors, 100 μl of the RBC suspension was added to 500 μl of PBS, pH 7.4, containing 0.3% hydrogen peroxide, in a scintillation vial. To activate the sample, 100 μl of 0.1N NaOH were added to the vial in place in an ATP photometer (Integrating ATP Photometer Model 3000, Science Applications, San Diego, California 92121) The photometer was set to a dark count of 1 count/30 second at a sensitivity of 600 at room temperature (approximately 23° C.). All counts followed a 5 second delay period to allow for stabilization of the photomultiplier. The counts are reported as counts/30 sec.
All essays were run at room temperature. The post-collection age of those cells was 11-18 days and the cells were used the day of labeling. […] Pyruvate (1.43 mM), an autoxidizable substrate, doubled the CL of labeled cells.

peroxidase = test: 3-aminotyrosine oxidation by peroxidase; type: biochemical
[2] = system: Con A-Lu-BSA labeled pig RBCs; test: Chemiluminescence of Con A-Lu-BSA labeled pig RBCs with exogenous hydrogen peroxide; type: cell-based; details: Sus scrofa, Erythrocyte, 1.43 mM, no cells; read-out: Percent control
[3] = system: 20-methylcholanthrene induced tumors; details: cited from earlier work
[4] = in vivo; cited from earlier work
[5] = 1.43 mM, labeled RBCs 11-18 days post collection, room temperature
[6] = Sus scrofa, Erythrocyte, 1.43 mM, read-out: Percent control

OO [Hydrogen peroxide, reference compound]
CL (30 s) (porcine RBCs; Lu-BSA binding, pretreatment 44 mM, 37° C., 15 min, RBCs 19 days post collection): 558 ± 157 counts/30 s
activation at 44000 µM (porcine RBCs; Sus scrofa, 0.25 h, 44 mM, 15 min, 37° C. (hot air), 1.4×10^9 RBCs/ml, read-out: increase in bound Lu-BSA compared to cells maintained in PBS): 721%
activation at 11700 µM (porcine RBCs; Sus scrofa, 0.5 h, hydrogen peroxide 11.7 mM, 37° C., 30 min, vs 4° C. control, read-out: Percent difference from control): 254%
CL (30 s) (porcine RBCs; hydrogen peroxide 11.7 mM, 37° C., 30 min, RBCs less than 24 hours post collection): 1346 ± 386 counts/30 s

OC[C@H]1O[C@@H](n2cnc3c(O)ncnc32)[C@H](O)[C@@H]1O [Inosine]
benefit of storing RBCs in reagent in respect to thermal fragility, in words (pig RBCs; 10 mM): no significant benefit
thermal hemolysis, 410 nm optical absorbance, Hot air (pig RBCs; 10 mM): 0.597 ± 0.080
thermal hemolysis, 410 nm optical absorbance, Microwave exposed (pig RBCs; 10 mM): 0.578 ± 0.045
effect on CL of labeled cells, in words ([1]; 1.43 mM): small but significant increase
CL (30 sec) [1, 5]: 34,972 ± 2,732 counts/30 sec
activity at 1430 µM [1, 6]: 115%

NC(Cn1ccc(=O)c(O)c1)C(=O)O [L--mimosine, L-mimosine]
Percent difference from controls (corrected), 4° C. (pig RBCs; 340 μM, 48° C. 30 min): 95.1%
Percent difference from controls (corrected), 48° C. (pig RBCs; 340 μM, 48° C. 30 min): 21.5%
410 nm absorbance, Actual (pig RBCs; 340 μM, 48° C. 30 min, RBCs 20 days post collection, 1.4×10^9 per ml): 0.965 ± 0.026
410 nm absorbance, Corrected (pig RBCs; 340 μM, 48° C. 30 min, corrected for RBC dilution): 0.724
effect on thermal hemolysis, in words (pig RBCs; 340 μM, listed as Mimosine): had no effect
effect on thermal hemolysis, in words (pig RBCs; 340 μM, listed as mimosine): failed to protect
CL (30 sec) ([1]; 630 μM): 8,555 ± 1,044 counts/30 sec
level of CL below natural RBC CL ([1]; 630 μM): 36%
effect of prewashing labeled cells on CL, in words ([1]; 5 mM, 30 min at room temperature): no significant effect
activity at 630 µM ([1]; Sus scrofa, Erythrocyte, 630 μM, read-out: Percent control): 28%
activity at 5000 µM ([1]; Sus scrofa, Erythrocyte, pretreatment 5 mM, 30 min, washed before activation, read-out: Percent control): 94%
inhibition at 630 µM ([1]; Sus scrofa, 630 μM, read-out: inhibition of CL): 72%
CL (30 sec) ([1]; pretreatment 5 mM, 30 min, washed before activation): 28,517 ± 2,591 counts/30 sec
mode of inhibition, in words (peroxidase): uncompetitive inhibitor

CC(O)C(=O)O (centres unmarked) [Lactate]
change in hemolysis, in words (pig RBCs; 10 mM, 43° C., RBCs 6 days post-collection): insignificant increases
410 nm optical absorbance of 1:2 diluted supernatant, 4° C. (pig RBCs; 10 mM): 0.362
thermal hemolysis, 410 nm optical absorbance, Hot air (pig RBCs; 10 mM): 0.667 ± 0.04
thermal hemolysis, 410 nm optical absorbance, Microwave exposed (pig RBCs; 10 mM): 0.643 ± 0.02
410 nm optical absorbance of 1:2 diluted supernatant, Hot air (pig RBCs; 10 mM): 0.440 ± 0.078
410 nm optical absorbance of 1:2 diluted supernatant, Microwave exposed (pig RBCs; 10 mM): 0.424 ± 0.014
effect on CL of labeled cells, in words ([1]; 1.43 mM): insignificant increases
CL (30 sec) [1, 5]: 30,930 ± 3,399 counts/30 sec
activity at 1430 µM [1, 6]: 102%

CC(=O)C(=O)O [Pyruvate]
CL (30 s) (porcine RBCs; 1.33 mM, 45° C., 30 min): 1203 ± 266 counts/30 s
CL (counts/30 s) (porcine RBCs; 1.33 mM, 30 min at 37° C., RBCs 72 hours post collection): 2348 ± 646 counts/30 s
activation at 1330 µM (porcine RBCs; Sus scrofa, 1.33 mM during exposure to 45° C., read-out: increase in Lu-BSA binding over the 45° C. exposure alone): 101%
activation at 1330 µM (porcine RBCs; Sus scrofa, 0.5 h, 1.33 mM, 45° C., 30 min, vs 4° C. control, read-out: Percent difference from control): 216%
activation at 1330 µM (porcine RBCs; Sus scrofa, 0.5 h, 1.33 mM, 30 min at 37° C., read-out: Percent difference from control): 166%
fold induction at 1330 µM (porcine RBCs; Sus scrofa, 0.5 h, 1.33 mM, 30 min at 37° C., read-out: increase of Lu-BSA binding): 2.7
410 nm optical absorbance of 1:2 diluted supernatant, 4° C. (pig RBCs; 10 mM): 0.363
thermal hemolysis, 410 nm optical absorbance, Hot air (pig RBCs; 10 mM): 0.646 ± 0.02
thermal hemolysis, 410 nm optical absorbance, Microwave exposed (pig RBCs; 10 mM): 0.646 ± 0.07
410 nm optical absorbance of 1:2 diluted supernatant, Hot air (pig RBCs; 10 mM): 0.427 ± 0.015
410 nm optical absorbance of 1:2 diluted supernatant, Microwave exposed (pig RBCs; 10 mM): 0.374 ± 0.055
spontaneous hemolysis reading (pig RBCs; pyruvate 1.33 mM, 37° C., RBCs 72 hours post collection): 0.362±0.016
CL (30 sec) ([1]; 1.43 mM, no cells): 420 counts/30 sec
CL (30 sec) [1, 5]: 60,732 ± 3,258 counts/30 sec
activity at 1430 µM [1, 6]: 200%
activity at 1430 µM [2]: 1.4%

S=P(N1CC1)(N1CC1)N1CC1 [thio-TEPA, reference compound]
effect on tumor growth, in words ([3]; agent alone): Neither myeloperoxidase nor thio-TEPA alone were effective

myeloperoxidase
effect on tumor growth, in words ([3]; agent alone): Neither myeloperoxidase nor thio-TEPA alone were effective
effect on tumor growth, in words ([3]; myeloperoxidase injected in combination with thio-TEPA): significant reduction in tumor growth
biological half-life [4]: about 24 hours
